Calls of active or inactive are those of the source. No cut-off for these calls is given here.
What was measured:
Dengue virus = test: Antiviral activity against Dengue virus at 75 uM; format: functional, organism-based
West Nile virus = test: Antiviral activity against West Nile virus at 75 uM; format: functional, organism-based
Yellow fever virus = test: Antiviral activity against Yellow fever virus at 75 uM; format: functional, organism-based
[1] = system: Human immunodeficiency virus 1; test: Antiviral activity against HIV1 BH10 in human MT4 cells assessed as inhibition of virus-induced cytopathogenicity after 4 days by MTS method; format: functional, organism-based, Human immunodeficiency virus type 1 BH10; details: Human immunodeficiency virus 1, MT4, 96 h
[2] = Cytotoxicity against human MT4 cells by MTS method; format: cell-based
CCRF S-180 = test: Growth inhibition of mouse S180 cells; format: functional, cell-based
HL-60 = test: Growth inhibition of human HL60 cells; format: functional, cell-based
L1210 = test: Growth inhibition of mouse L1210 cells; format: functional, cell-based

Row | Compound | Activity (Dengue virus) | Activity (West Nile virus) | Activity (Yellow fever virus) | EC50 [1] [µM] | CC50 [2] [µM] | IC50 (CCRF S-180) [µM] | IC50 (HL-60) [µM] | IC50 (L1210) [µM]
1 | O=c1[nH]cnc2c([C@@H]3O[C@H](CO)[C@@H](O)[C@H]3O)scc12 | inactive | inactive | inactive | > 100 | > 100 | – | – | –
2 | OC[C@@H]1CC[C@H](c2scc3c(O)ncnc23)O1 | inactive | inactive | inactive | > 100 | > 100 | – | – | –
3 | Cc1cn([C@H]2C[C@H](N=[N+]=[N-])[C@@H](CO)O2)c(=O)[nH]c1=O [ZIDOVUDINE] | – | – | – | 0.009 | 61 | – | – | –
4 | OC[C@@H]1C=C[C@H](c2scc3c(O)ncnc23)O1 | inactive | inactive | inactive | > 100 | > 100 | – | – | –
5 | Nc1ncnc2c([C@H]3C=C[C@@H](CO)O3)scc12 | inactive | inactive | inactive | > 7.3 | 7.3 | – | – | –
6 | Nc1ncnc2c([C@H]3CC[C@@H](CO)O3)scc12 | inactive | inactive | inactive | > 75 | > 75 | – | – | –
7 | OC[C@H]1O[C@@H](c2scc3c(=S)[nH]cnc23)[C@H](O)[C@@H]1O | inactive | inactive | inactive | > 2.9 | 2.9 | 29.1 | 8.17 | 17.6
8 | CSc1ncnc2c([C@H]3C=C[C@@H](CO)O3)scc12 | inactive | inactive | inactive | > 70 | 70 | – | – | –

From ChEMBL document CHEMBL1153937, “Synthesis and antiviral evaluation of thieno[3,4-d]pyrimidine C-nucleoside analogues of 2',3'-dideoxy- and 2',3'-dideoxy-2',3'-didehydro-adenosine and -inosine” (Bioorg Med Chem, 2009)
